From patent publication US7781591B2, “Substituted 3-cyanopyridines as protein kinase inhibitors” (Wyeth LLC, priority 2006, dated 2010) come the findings set out here.

The term IC50 denotes the point on the concentration scale where inhibition reaches its midpoint.

This experiment addresses T1, human PKCθ full length enzyme (Homo sapiens, UniProt Q04759).
T1 construct: human PKCθ full length enzyme (Panvera Cat# P2996); purchased Panvera P2996
Nature of the experiment: PKCθ IMAP assay (fluorescence polarization). Format: biochemical. To be noted: human PKCθ full length enzyme, IMAP; average value; read-out: IC50 PKCθ IMAP.

T1 sequence (Q04759 whole entry): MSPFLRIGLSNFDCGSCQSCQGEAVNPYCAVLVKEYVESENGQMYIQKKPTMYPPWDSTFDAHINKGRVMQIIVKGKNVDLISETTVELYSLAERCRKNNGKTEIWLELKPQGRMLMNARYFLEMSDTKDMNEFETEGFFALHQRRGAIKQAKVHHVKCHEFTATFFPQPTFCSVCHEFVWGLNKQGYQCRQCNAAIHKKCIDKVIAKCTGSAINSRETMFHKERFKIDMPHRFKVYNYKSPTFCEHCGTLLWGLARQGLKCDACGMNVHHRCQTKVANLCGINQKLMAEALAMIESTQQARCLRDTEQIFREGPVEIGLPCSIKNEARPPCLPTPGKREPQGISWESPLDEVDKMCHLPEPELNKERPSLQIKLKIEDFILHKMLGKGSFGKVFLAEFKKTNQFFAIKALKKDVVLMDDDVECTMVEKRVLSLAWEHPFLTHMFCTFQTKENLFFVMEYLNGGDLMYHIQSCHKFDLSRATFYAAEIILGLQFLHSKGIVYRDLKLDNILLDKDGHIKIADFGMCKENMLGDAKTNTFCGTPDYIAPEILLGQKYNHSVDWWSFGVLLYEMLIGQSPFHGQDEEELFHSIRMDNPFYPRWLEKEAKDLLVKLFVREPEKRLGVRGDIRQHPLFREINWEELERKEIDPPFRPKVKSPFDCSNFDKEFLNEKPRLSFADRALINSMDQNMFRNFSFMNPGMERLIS

For `COc1ccc(-c2cncc(C#N)c2Nc2cccc3[nH]ccc23)cc1OCCNCCO` [Compound 249, 5-(3-{2-[(2-hydroxyethyl)amino]ethoxy}-4-methoxyphenyl)-4-(1H-indol-4-ylamino)nicotinonitrile], the IC50 was found to be 0.03 µM.

Regarding `COc1ccc(-c2cncc(C#N)c2Nc2ccc3[nH]ccc3c2)cc1OCCNCCCc1ccccc1` [Compound 250, 4-(1H-indol-5-ylamino)-5-(4-methoxy-3-{2-[(3-phenylpropyl)amino]ethoxy}phenyl)nicotinonitrile], the IC50 was 0.02 µM. In the case of `COc1ccc(-c2cncc(C#N)c2Nc2ccc3[nH]ccc3c2)cc1OCCNCCc1ccccn1` [Compound 251, 4-(1H-indol-5-ylamino)-5-(4-methoxy-3-{2-[(2-pyridin-2-ylethyl)amino]ethoxy}phenyl)nicotinonitrile] it was 0.04 µM.

As to `COc1ccc(-c2cncc(C#N)c2Nc2ccc3[nH]ccc3c2)cc1OCCNCCc1cccnc1` [Compound 252, 4-(1H-indol-5-ylamino)-5-(4-methoxy-3-{2-[(2-pyridin-3-ylethyl)amino]ethoxy}phenyl)nicotinonitrile], the IC50 is 0.03 µM. In the case of `COc1ccc(-c2cncc(C#N)c2Nc2ccc3[nH]ccc3c2)cc1OCCNCCc1ccncc1` [Compound 253, 4-(1H-indol-5-ylamino)-5-(4-methoxy-3-{2-[(2-pyridin-4-ylethyl)amino]ethoxy}phenyl)nicotinonitrile] it was 0.05 µM; in that of `CN(C)c1cccc(-c2cncc(C#N)c2Nc2cccc3[nH]ccc23)c1` [Compound 254, 5-[3-(dimethylamino)phenyl]-4-(1H-indol-4-ylamino)nicotinonitrile], 0.08 µM; in that of `CS(=O)(=O)c1cccc(-c2cncc(C#N)c2Nc2cccc3[nH]ccc23)c1` [Compound 255, 4-(1H-indol-4-ylamino)-5-[3-(methylsulfonyl)phenyl]nicotinonitrile], 0.08 µM. Turning to `CS(=O)(=O)Nc1cccc(-c2cncc(C#N)c2Nc2cccc3[nH]ccc23)c1` [Compound 256, N-{3-[5-cyano-4-(1H-indol-4-ylamino)pyridin-3-yl]phenyl}methanesulfonamide], the IC50 was determined as 0.02 µM. On to `N#Cc1cncc(-c2ccccc2)c1Nc1ccc2[nH]ccc2c1` [Compound 257, 4-(1H-indol-5-ylamino)-5-phenylnicotinonitrile], for which the IC50 turned out to be 0.1 µM. In the case of `N#Cc1cncc(-c2ccsc2)c1Nc1ccc2[nH]ccc2c1` [Compound 258, 4-(1H-indol-5-ylamino)-5-(3-thienyl)nicotinonitrile] it was 0.1 µM. As for `N#Cc1cncc(-c2cccnc2)c1Nc1ccc2[nH]ccc2c1` [Compound 259, 4-(1H-indol-5-ylamino)-3,3′-bipyridine-5-carbonitrile], the IC50 stood at 1.37 µM.

As to `N#Cc1cncc(-c2ccc3c(c2)OCO3)c1Nc1ccc2[nH]ccc2c1` [Compound 260, 5-(1,3-benzodioxol-5-yl)-4-(1H-indol-5-ylamino)nicotinonitrile], the IC50 turned out to be 0.07 µM.

For the molecule `N#Cc1cncc(-c2ccncc2)c1Nc1ccc2[nH]ccc2c1` [Compound 261, 4-(1H-indol-5-ylamino)-3,4′-bipyridine-5-carbonitrile], the IC50 was 0.08 µM. In the case of `N#Cc1cncc(-c2ccoc2)c1Nc1ccc2[nH]ccc2c1` [Compound 262, 5-(3-furyl)-4-(1H-indol-5-ylamino)nicotinonitrile] it was 0.12 µM. The result for `N#Cc1cncc(-c2ccc3[nH]ccc3c2)c1Nc1ccc2[nH]ccc2c1` [Compound 263, 5-(1H-indol-5-yl)-4-(1H-indol-5-ylamino)nicotinonitrile] reads 0.05 µM. Turning to `N#Cc1cncc(-c2ccc3c(c2)OCCO3)c1Nc1ccc2[nH]ccc2c1` [Compound 264, 5-(2,3-dihydro-1,4-benzodioxin-6-yl)-4-(1H-indol-5-ylamino)nicotinonitrile], the IC50 is 0.06 µM. In the case of `N#Cc1cncc(-c2cncnc2)c1Nc1ccc2[nH]ccc2c1` [Compound 265, 4-(1H-indol-5-ylamino)-5-pyrimidin-5-ylnicotinonitrile] it was 3.86 µM.

As for `COc1ncc(-c2cncc(C#N)c2Nc2ccc3[nH]ccc3c2)cn1` [Compound 266, 4-(1H-indol-5-ylamino)-5-(2-methoxypyrimidin-5-yl)nicotinonitrile], the IC50 is 1.45 µM.

Turning to `N#Cc1cncc(-c2cccs2)c1Nc1ccc2[nH]ccc2c1` [Compound 267, 4-(1H-indol-5-ylamino)-5-(2-thienyl)nicotinonitrile], the IC50 came out at 0.1 µM.

For `N#Cc1cncc(-c2cc3ccccc3o2)c1Nc1ccc2[nH]ccc2c1` [Compound 268, 5-(1-benzofuran-2-yl)-4-(1H-indol-5-ylamino)nicotinonitrile], the IC50 was 0.01 µM. Turning to `Cc1noc(C)c1-c1cncc(C#N)c1Nc1ccc2[nH]ccc2c1` [Compound 269, 5-(3,5-dimethylisoxazol-4-yl)-4-(1H-indol-5-ylamino)nicotinonitrile], the IC50 came to 10.9 µM. In the case of `N#Cc1cncc(-c2cccc(CO)c2)c1Nc1cccc2[nH]ccc12` [Compound 270, 5-[3-(hydroxymethyl)phenyl]-4-(1H-indol-4-ylamino)nicotinonitrile] it was 0.02 µM. Consider `CN(C)Cc1cccc(-c2cncc(C#N)c2Nc2cccc3[nH]ccc23)c1` [Compound 271, 5-{3-[(dimethylamino)methyl]phenyl}-4-(1H-indol-4-ylamino)nicotinonitrile], for which the IC50 was 0.1 µM. Turning to `C#CCNCc1ccc2sc(-c3cncc(C#N)c3Nc3cccc4[nH]ccc34)cc2c1` [Compound 272, 4-(1H-indol-4-ylamino)-5-{5-[(prop-2-yn-1-ylamino)methyl]-1-benzothien-2-yl}nicotinonitrile], the IC50 was 0.004 µM. Regarding `CCCCNCc1ccc2sc(-c3cncc(C#N)c3Nc3cccc4[nH]ccc34)cc2c1` [Compound 273, 5-{5-[(butylamino)methyl]-1-benzothien-2-yl}-4-(1H-indol-4-ylamino)nicotinonitrile], the IC50 stood at 0.002 µM.

On to `N#Cc1cncc(-c2cc3cc(CNCCO)ccc3s2)c1Nc1cccc2[nH]ccc12` [Compound 274, 5-(5-{[(2-hydroxyethyl)amino]methyl}-1-benzothien-2-yl)-4-(1H-indol-4-ylamino)nicotinonitrile], for which the IC50 was 0.002 µM. For the molecule `N#Cc1cncc(-c2cc3cc(CNCCCO)ccc3s2)c1Nc1cccc2[nH]ccc12` [Compound 275, 5-(5-{[(3-hydroxypropyl)amino]methyl}-1-benzothien-2-yl)-4-(1H-indol-4-ylamino)nicotinonitrile], the IC50 worked out at 0.002 µM. The result for `COCCCNCc1ccc2sc(-c3cncc(C#N)c3Nc3cccc4[nH]ccc34)cc2c1` [Compound 276, 4-(1H-indol-4-ylamino)-5-(5-{[(3-methoxypropyl)amino]methyl}-1-benzothien-2-yl)nicotinonitrile] reads 0.002 µM; that for `N#Cc1cncc(-c2cc3cc(CNCCCCO)ccc3s2)c1Nc1cccc2[nH]ccc12` [Compound 277, 5-(5-{[(4-hydroxybutyl)amino]methyl}-1-benzothien-2-yl)-4-(1H-indol-4-ylamino)nicotinonitrile], 0.003 µM.

Take `N#Cc1cncc(-c2cc3cc(CNC4CC4)ccc3s2)c1Nc1cccc2[nH]ccc12` [Compound 278, 5-{5-[(cyclopropylamino)methyl]-1-benzothien-2-yl}-4-(1H-indol-4-ylamino)nicotinonitrile]: the IC50 was determined as 0.002 µM. The result for `N#Cc1cncc(-c2cc3cc(CNCC4CC4)ccc3s2)c1Nc1cccc2[nH]ccc12` [Compound 279, 5-(5-{[(cyclopropylmethyl)amino]methyl}-1-benzothien-2-yl)-4-(1H-indol-4-ylamino)nicotinonitrile] reads 0.001 µM.

`N#Cc1cncc(-c2cc3cc(CN4CCCC4)ccc3s2)c1Nc1cccc2[nH]ccc12` [Compound 280, 4-(1H-indol-4-ylamino)-5-[5-(pyrrolidin-1-ylmethyl)-1-benzothien-2-yl]nicotinonitrile]: the IC50 turned out to be 0.004 µM.

In the case of `N#Cc1cncc(-c2cc3cc(CN4CCOCC4)ccc3s2)c1Nc1cccc2[nH]ccc12` [Compound 281, 4-(1H-indol-4-ylamino)-5-[5-(morpholin-4-ylmethyl)-1-benzothien-2-yl]nicotinonitrile], the IC50 amounted to 0.01 µM. The result for `N#Cc1cncc(-c2cc3cc(CNCCN4CCOCC4)ccc3s2)c1Nc1cccc2[nH]ccc12` [Compound 282, 4-(1H-indol-4-ylamino)-5-(5-{[(2-morpholin-4-ylethyl)amino]methyl}-1-benzothien-2-yl)nicotinonitrile] reads 0.003 µM. As for `N#Cc1cncc(-c2cc3cc(CN4CCCCC4)ccc3s2)c1Nc1cccc2[nH]ccc12` [Compound 283, 4-(1H-indol-4-ylamino)-5-[5-(piperidin-1-ylmethyl)-1-benzothien-2-yl]nicotinonitrile], the IC50 came to 0.002 µM. The result for `N#Cc1cncc(-c2cc3cc(CN4CCC(CO)CC4)ccc3s2)c1Nc1cccc2[nH]ccc12` [Compound 284, 5-(5-{[4-(hydroxymethyl)piperidin-1-yl]methyl}-1-benzothien-2-yl)-4-(1H-indol-4-ylamino)nicotinonitrile] reads 0.004 µM; that for `N#Cc1cncc(-c2cc3cc(CO)ccc3s2)c1Nc1cccc2[nH]ccc12` [Compound 285, 5-[5-(hydroxymethyl)-1-benzothien-2-yl]-4-(1H-indol-4-ylamino)nicotinonitrile], 0.004 µM; that for `N#Cc1cncc(-c2cc3cc(CNCc4ccccc4)ccc3s2)c1Nc1cccc2[nH]ccc12` [Compound 286, 5-{5-[(benzylamino)methyl]-1-benzothien-2-yl}-4-(1H-indol-4-ylamino)nicotinonitrile], 0.001 µM. Turning to `N#Cc1cncc(-c2cc3cc(CNCCc4ccccc4)ccc3s2)c1Nc1cccc2[nH]ccc12` [Compound 287, 4-(1H-indol-4-ylamino)-5-(5-{[(2-phenylethyl)amino]methyl}-1-benzothien-2-yl)nicotinonitrile], the IC50 was found to be 0.003 µM.

With `N#Cc1cncc(-c2cc3cc(CNCc4ccccn4)ccc3s2)c1Nc1cccc2[nH]ccc12` [Compound 288, 4-(1H-indol-4-ylamino)-5-(5-{[(pyridin-2-ylmethyl)amino]methyl}-1-benzothien-2-yl)nicotinonitrile], the IC50 was 0.003 µM.
